Results on one substance are retold here after patent publication US9937156B2, “Modulation of MRTF-A activity in pathologic fibrosis and wound healing” (The Board of Regents of the University of Texas System, priority 2013, dated 2018).

The assay has as its system tail tip fibroblasts (TTFs), MRTF-A KO and WT. The experiment in a line: SMA expression in tail tip fibroblasts from MRTF-A KO and WT mice. The settings on record: TGF-β1 48 hrs. Format: cell-based, mouse. As for the experimental part: Mouse NIH/3T3 and human BR5 fibroblasts were grown as in DMEM supplemented with 10% BCS or FBS at 37° C. in a 5% CO2 incubator as previously described (Rhee et al., 2007). Primary mouse tail tip fibroblasts (TTFs) were isolated from 6- to 8-wk-old myocardin-related transcription factor (MRTF)-A−/− or wild-type littermates and cultured in DMEM supplemented with 10% FBS, nonessential amino acids, L-glutamine, and sodium pyruvate as described previously (Song et al., 2012). Once TTFs became confluent, cells were frozen in 10% DMSO containing growth media for future use before passage 3.
NIH/3T3 cells were transfected with 10 ng empty flag or flag epitope-tagged MRTF-A vector along with 100 ng smooth muscle a-actin (SMA), atrial natriuretic factor (ANF), SM22, or skeletal actin (SKA) luciferase reporter and 20 ng of β-galactosidase (β-gal) expression construct using Fugene6 (Roche). Plasmid DNA content was kept constant using empty pcDNA3.1-flag. BR5, NIH/3T3, or TTF cells were infected with adenovirus directing the expression of flag-MRTF-A, HA-MRTF-A, or β-gal as control at the multiplicity of infection (MOI) noted in the text. For experiments using chemical compounds or growth factors, cells were cultured in serum-free media (SF) for 24 h before treatment, followed by an additional 24- to 48-hr incubation in SF media treated with TGF-β1 (10 ng/mL, R&D Systems) solubilized in 4 mM HCl/1% BSA/PBS or isoxazole (20 μM) solubilized inDMSO.
Cells were treated with the indicated factor for 24 h before fixation with methanol at −20° C. for 10 min. Indirect immunofluorescence was performed by incubating with the following primary antibodies at 4° C. overnight: mouse monoclonal Cy3-conjugated anti-SMA antibody (Sigma, clone 1A4, 1:200) and rabbit monoclonal anti-HA antibody (Cell Signaling, 1:300). A secondary goat Alexa Fluor 488-conjugated anti-rabbit IgG antibody (Invitrogen, 1:200) was used to visualize HA by incubation at RT for 1 hr. All images were captured using an Olympus IX81 confocal microscope. […]

With “TGF-β1: growth factor (R&D Systems) used at 10 ng/mL to stimulate fibroblast differentiation”, the “expression of genes encoding SMC contractile proteins (SMA and SM22), qPCR and Western blot” value (MRTF-A-deficient TTFs) is “blunted”. The SMA-positive stress fibers entry (MRTF-A-deficient fibroblasts) is “did not display an enrichment”. The “morphology and SMA-positive stress fibers” value (WT fibroblasts) is “adopting an elongated morphology and producing SMA-positive stress fibers”.
